Assay [1] concerns the target T1, Penicillin-binding protein 2x (Streptococcus pneumoniae serotype 4 (strain ATCC BAA-334 / TIGR4), UniProt P14677).
T1 sequence (P14677 whole entry): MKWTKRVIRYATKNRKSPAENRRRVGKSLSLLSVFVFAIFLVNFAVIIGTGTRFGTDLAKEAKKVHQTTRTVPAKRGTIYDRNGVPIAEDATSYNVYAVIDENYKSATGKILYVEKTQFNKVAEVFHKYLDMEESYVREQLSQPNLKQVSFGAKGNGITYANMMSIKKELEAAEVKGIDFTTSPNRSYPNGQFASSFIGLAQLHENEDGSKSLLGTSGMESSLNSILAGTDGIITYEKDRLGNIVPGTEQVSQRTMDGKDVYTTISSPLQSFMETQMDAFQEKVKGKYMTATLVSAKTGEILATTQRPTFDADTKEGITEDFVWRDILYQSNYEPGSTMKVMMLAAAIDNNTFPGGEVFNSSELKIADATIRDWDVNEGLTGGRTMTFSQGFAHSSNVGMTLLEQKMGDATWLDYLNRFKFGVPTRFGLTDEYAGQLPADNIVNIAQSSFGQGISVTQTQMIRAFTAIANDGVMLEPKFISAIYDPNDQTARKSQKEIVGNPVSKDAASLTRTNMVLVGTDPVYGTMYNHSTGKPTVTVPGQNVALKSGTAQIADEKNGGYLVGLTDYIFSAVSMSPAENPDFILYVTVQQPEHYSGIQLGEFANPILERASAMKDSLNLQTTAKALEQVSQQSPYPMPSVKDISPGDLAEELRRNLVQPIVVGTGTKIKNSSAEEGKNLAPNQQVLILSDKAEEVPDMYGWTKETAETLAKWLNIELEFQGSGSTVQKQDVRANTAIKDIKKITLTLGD
The experiment in a line: Displacement of Biocillin FL from Streptococcus pneumoniae 1077 PBP2X.

In assay [2] the test system is Streptococcus pneumoniae. Briefly: Antimicrobial activity against penicillin-resistant Streptococcus pneumoniae 2527 by CLSI method. The format is functional.
Assay [3] deals with T2, Penicillin-binding protein 2B (Streptococcus pneumoniae serotype 4 (strain ATCC BAA-334 / TIGR4), UniProt P0A3M5).
T2 sequence (P0A3M5 whole entry): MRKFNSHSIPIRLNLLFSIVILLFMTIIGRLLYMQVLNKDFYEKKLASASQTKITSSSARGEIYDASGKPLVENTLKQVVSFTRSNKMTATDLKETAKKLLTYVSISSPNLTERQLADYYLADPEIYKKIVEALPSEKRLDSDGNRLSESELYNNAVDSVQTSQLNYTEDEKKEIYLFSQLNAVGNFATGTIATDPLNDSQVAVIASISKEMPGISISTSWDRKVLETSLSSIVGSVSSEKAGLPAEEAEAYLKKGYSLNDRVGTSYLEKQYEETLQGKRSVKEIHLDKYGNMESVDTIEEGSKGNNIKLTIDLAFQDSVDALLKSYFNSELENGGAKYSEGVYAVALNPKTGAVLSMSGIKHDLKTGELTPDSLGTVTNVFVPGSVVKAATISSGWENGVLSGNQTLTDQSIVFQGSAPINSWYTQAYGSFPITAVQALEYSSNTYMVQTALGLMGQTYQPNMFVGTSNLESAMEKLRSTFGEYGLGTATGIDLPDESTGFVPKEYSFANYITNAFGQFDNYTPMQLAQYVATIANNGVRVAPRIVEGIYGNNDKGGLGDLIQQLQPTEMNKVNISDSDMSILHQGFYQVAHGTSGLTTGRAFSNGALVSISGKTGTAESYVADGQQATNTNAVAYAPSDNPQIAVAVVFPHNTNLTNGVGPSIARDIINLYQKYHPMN
Briefly: Displacement of Biocillin FL from Streptococcus pneumoniae 1077 PBP2B.

The target of assay [4] is T3, Penicillin-binding protein 1A (Streptococcus pneumoniae serotype 4 (strain ATCC BAA-334 / TIGR4), UniProt Q04707).
T3 sequence (Q04707 whole entry): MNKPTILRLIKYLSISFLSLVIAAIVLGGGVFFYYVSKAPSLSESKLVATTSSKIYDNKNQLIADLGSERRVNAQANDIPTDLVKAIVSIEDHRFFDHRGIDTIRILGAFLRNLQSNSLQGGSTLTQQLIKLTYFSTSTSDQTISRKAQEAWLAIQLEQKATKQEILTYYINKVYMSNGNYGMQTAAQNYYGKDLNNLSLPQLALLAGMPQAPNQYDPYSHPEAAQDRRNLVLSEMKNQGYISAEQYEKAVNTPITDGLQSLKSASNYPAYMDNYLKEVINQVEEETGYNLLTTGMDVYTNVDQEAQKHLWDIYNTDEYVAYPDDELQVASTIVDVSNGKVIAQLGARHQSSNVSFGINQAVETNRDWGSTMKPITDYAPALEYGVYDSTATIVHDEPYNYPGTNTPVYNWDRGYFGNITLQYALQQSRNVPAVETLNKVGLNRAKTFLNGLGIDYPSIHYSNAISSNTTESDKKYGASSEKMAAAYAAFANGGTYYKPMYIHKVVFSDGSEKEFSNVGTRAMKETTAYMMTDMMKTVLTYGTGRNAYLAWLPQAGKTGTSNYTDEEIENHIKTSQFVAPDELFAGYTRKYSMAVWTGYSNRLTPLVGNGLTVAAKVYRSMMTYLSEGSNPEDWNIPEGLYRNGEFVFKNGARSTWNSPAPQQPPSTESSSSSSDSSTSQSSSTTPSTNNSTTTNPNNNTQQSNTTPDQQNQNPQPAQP
Briefly: Displacement of Biocillin FL from Streptococcus pneumoniae 3676 PBP1A.

The nature of assay [5]: Displacement of Biocillin FL from Streptococcus pneumoniae 24 PBP2A.
Assay [6] concerns the target T3, Penicillin-binding protein 1A. The experiment in a line: Displacement of Biocillin FL from Streptococcus pneumoniae 3009 PBP1A.
Assay [7] concerns Streptococcus pneumoniae. The experiment in a line: Antimicrobial activity against penicillin-resistant Streptococcus pneumoniae 24 by CLSI method. The format is functional.
Assay [8] is described as follows: Displacement of Biocillin FL from Streptococcus pneumoniae 3243 PBP1B.
Assay [9] addresses T2, Penicillin-binding protein 2B. The experiment in a line: Displacement of Biocillin FL from Streptococcus pneumoniae 1076 PBP2B.
Assay [10] deals with T3, Penicillin-binding protein 1A. The experiment in a line: Displacement of Biocillin FL from Streptococcus pneumoniae 1077 PBP1A.
Assay [11] in a line: Displacement of Biocillin FL from Streptococcus pneumoniae 3009 PBP3.
Assay [12] has as its target T3, Penicillin-binding protein 1A. The experiment in a line: Displacement of Biocillin FL from Streptococcus pneumoniae 3243 PBP1A.
The target in assay [13] is T2, Penicillin-binding protein 2B. Briefly: Displacement of Biocillin FL from Streptococcus pneumoniae 24 PBP2B.
Assay [14] is described as follows: Displacement of Biocillin FL from Streptococcus pneumoniae 3413 PBP2A.
The target of assay [15] is T1, Penicillin-binding protein 2x. The experiment in a line: Displacement of Biocillin FL from Streptococcus pneumoniae 1076 PBP2X.
Assay [16] can be described thus: Displacement of Biocillin FL from Streptococcus pneumoniae 3413 PBP1B.
Assay [17] in a line: Displacement of Biocillin FL from Streptococcus pneumoniae 3665 PBP3.
The target of assay [18] is T1, Penicillin-binding protein 2x. Briefly: Displacement of Biocillin FL from Streptococcus pneumoniae 3243 PBP2X.
Assay [19] shares this target. The experiment in a line: Displacement of Biocillin FL from Streptococcus pneumoniae 3665 PBP2X.
Assay [20] deals with T2, Penicillin-binding protein 2B. Briefly: Displacement of Biocillin FL from Streptococcus pneumoniae 3676 PBP2B.
The target is the same in assay [21]. The experiment in a line: Displacement of Biocillin FL from Streptococcus pneumoniae 3413 PBP2B.

The values below come from ChEMBL document CHEMBL1649182, “Binding of faropenem and other beta-lactam agents to penicillin-binding proteins of pneumococci with various beta-lactam susceptibilities” (Antimicrob Agents Chemother, 2009).

For orientation: IC50 means the point on the concentration scale where inhibition reaches its midpoint. Read a low IC50 as greater potency in that assay. The MIC is the least concentration at which growth counts as inhibited.

Converted amounts (≈) assume the structure as drawn.

In the case of `C[C@@H](O)[C@H]1C(=O)N2C(C(=O)O)=C(SCCNC=N)C[C@H]12` [IMIPENEM ANHYDROUS], the IC50 in assay [1] is 0.598 µM; in assay [3] it was 0.154 µM; in [4], 0.838 µM; in assay [5], 0.352 mg/L (≈ 1.18 µM); in assay [6], 0.0869 µM; in assay [8] it was 0.108 mg/L (≈ 0.361 µM). Besides, the IC50 was 0.237 µM in assay [9]; 0.174 µM in assay [10]; 0.039 mg/L (≈ 0.13 µM) in assay [11]; 0.608 µM in assay [12]; 0.441 µM in [13]; 0.337 mg/L (≈ 1.13 µM) in assay [14]. The IC50 in [15] was 0.197 µM; in assay [16], 0.316 mg/L (≈ 1.06 µM); in assay [17], 0.171 mg/L (≈ 0.571 µM); in assay [18], 0.635 µM; in [19] it was 1.98 µM; in assay [20], 1.32 µM. In [21], this compound had an IC50 of 2.89 µM. Also, the minimal inhibitory concentration (MIC) against Streptococcus pneumoniae [2] and against Streptococcus pneumoniae [7] was 0.25 mg/L (≈ 0.835 µM) throughout.

With `CO/N=C(\C(=O)N[C@@H]1C(=O)N2C(C(=O)O)=C(COC(N)=O)CS[C@H]12)c1ccco1` [CEFUROXIME], the IC50 in [1] is 0.0141 µM; in assay [3] it was 2.74 µM; in [4], 0.0189 µM; in assay [5] it was 0.016 mg/L (≈ 0.0377 µM); in assay [6] it was 0.0236 µM; in assay [8], 0.075 mg/L (≈ 0.177 µM). Further, the half-inhibitory concentration (IC50) in [9] was 0.403 µM; in assay [10] it was 0.386 µM; in [11], 0.024 mg/L (≈ 0.0566 µM); in assay [12], 0.0141 µM; in assay [13], 0.0895 µM; in [14], 0.002 mg/L (≈ 0.00471 µM). Besides, the IC50 in [15] was 0.00471 µM; in assay [16] it was 0.032 mg/L (≈ 0.0754 µM); in assay [17], 0.047 mg/L (≈ 0.111 µM); in assay [18], 0.033 µM; in assay [19], 0.033 µM; in [20] it was 1.11 µM. In [21], the IC50 was 0.00118 µM. The MIC with Streptococcus pneumoniae [2] was 8 mg/L (≈ 18.9 µM); in the assay with Streptococcus pneumoniae [7], 2 mg/L (≈ 4.71 µM).

`C[C@@H](O)[C@H]1C(=O)N2C(C(=O)O)=C([C@H]3CCCO3)S[C@H]12` [FAROPENEM]: the IC50 in assay [1] is 0.687 µM; in [3] it was 0.028 µM; in [4] it was 0.0876 µM; in assay [5], 0.023 mg/L (≈ 0.0806 µM); in [6], 0.035 µM; in [8], 0.001 mg/L (≈ 0.0035 µM). The IC50 is 0.0456 µM in assay [9]; 0.0526 µM in assay [10]; 0.006 mg/L (≈ 0.021 µM) in assay [11]; 0.014 µM in [12]; 0.116 µM in assay [13]; 0.007 mg/L (≈ 0.0245 µM) in [14]. Further, the IC50 is 0.221 µM in [15]; 0.019 mg/L (≈ 0.0666 µM) in [16]; 0.005 mg/L (≈ 0.0175 µM) in assay [17]; 0.137 µM in assay [18]; 0.606 µM in assay [19]; 0.151 µM in assay [20]. Further, the IC50 in assay [21] is 0.498 µM. Besides, the MIC with Streptococcus pneumoniae [2] and against Streptococcus pneumoniae [7] was 1 mg/L (≈ 3.5 µM) each time.

Regarding `CC1(C)S[C@@H]2[C@H](NC(=O)Cc3ccccc3)C(=O)N2[C@H]1C(=O)O` [PENICILLIN G], the half-inhibitory concentration (IC50) was 0.0239 µM in assay [1]; 0.111 µM in assay [3]; 0.0359 µM in assay [4]; 0.133 mg/L (≈ 0.398 µM) in assay [5]; 0.0269 µM in assay [6]; 0.01 mg/L (≈ 0.0299 µM) in assay [8]. Also, the half-inhibitory concentration (IC50) is 0.179 µM in [9]; 0.0269 µM in assay [10]; 0.001 mg/L (≈ 0.00299 µM) in [11]; 0.0239 µM in assay [12]; 0.332 µM in assay [13]; 0.015 mg/L (≈ 0.0449 µM) in [14]. The IC50 in [15] is 0.0299 µM; in [16], 0.205 mg/L (≈ 0.613 µM); in [17], 0.01 mg/L (≈ 0.0299 µM); in [18] it was 0.0209 µM; in [19], 0.123 µM; in assay [20], 0.789 µM. The IC50 in assay [21] is 0.532 µM. In addition, the values for the minimum inhibitory concentration (MIC) in the assay with Streptococcus pneumoniae [2] and against Streptococcus pneumoniae [7] were 2 mg/L (≈ 5.98 µM) and 4 mg/L (≈ 12 µM), respectively.

For the compound `CC1(C)S[C@@H]2[C@H](NC(=O)[C@H](N)c3ccc(O)cc3)C(=O)N2[C@H]1C(=O)O` [AMOXICILLIN], the IC50 in assay [1] was 0.0602 µM; in assay [3], 0.0821 µM; in assay [4], 1.15 µM; in [5], 0.077 mg/L (≈ 0.211 µM); in assay [6], 0.246 µM; in assay [8], 0.165 mg/L (≈ 0.452 µM). The IC50 in [9] was 0.151 µM; in assay [10], 0.0465 µM; in assay [11] it was 0.047 mg/L (≈ 0.129 µM); in assay [12] it was 0.161 µM; in assay [13], 0.482 µM; in [14], 0.034 mg/L (≈ 0.093 µM). Moreover, the IC50 in assay [15] was 0.101 µM; in assay [16] it was 0.035 mg/L (≈ 0.0958 µM); in [17] it was 0.019 mg/L (≈ 0.052 µM); in assay [18], 0.0493 µM; in assay [19], 0.257 µM; in assay [20], 0.394 µM. Besides, the IC50 in assay [21] was 0.452 µM. The MIC in the assay with Streptococcus pneumoniae [2] worked out at 1 mg/L (≈ 2.74 µM); against Streptococcus pneumoniae [7], 2 mg/L (≈ 5.47 µM).
